Test results: patent US10597388B2, “Pyridazinone herbicides” (FMC CORPORATION, priority 2014, dated 2020)

Columns and labels:
Assay type in all cases: in vivo
[1] = tested on: barnyardgrass (Echinochloa crus-galli); experiment: Test C greenhouse herbicide test, pre- and postemergence
Procedure, shortened: (§1)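 Visual 0–100 injury score (100 = complete control) taken against untreated controls after 13–15 d in greenhouse. Test chemicals, formulated in solvent plus surfactant, applied preemergence to seeds in loam–sand soil or postemergence to 1- to 4-leaf plants (2–18 cm).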

[2] = tested on: blackgrass (Alopecurus myosuroides); experiment: as above
Procedure, shortened: as §1

corn (Zea mays) = experiment: as above
Procedure, shortened: as §1

[3] = tested on: crabgrass, large (large crabgrass, Digitaria sanguinalis); experiment: as above
Procedure, shortened: as §1

[4] = tested on: foxtail, giant (giant foxtail, Setaria faberii); experiment: as above
Procedure, shortened: as §1

[5] = tested on: galium (catchweed bedstraw, Galium aparine); experiment: as above
Procedure, shortened: as §1

[6] = tested on: johnsongrass (Sorghum halepense); experiment: as above
Procedure, shortened: as §1

[7] = tested on: nutsedge, yellow (yellow nutsedge, Cyperus esculentus); experiment: as above
Procedure, shortened: as §1

[8] = tested on: ryegrass, Italian (Italian ryegrass, Lolium multiflorum); experiment: as above
Procedure, shortened: as §1

soybean (Glycine max) = experiment: as above
Procedure, shortened: as §1

[9] = tested on: velvetleaf (Abutilon theophrasti); experiment: as above
Procedure, shortened: as §1

[10] = tested on: wheat (winter wheat, Triticum aestivum); experiment: as above
Procedure, shortened: as §1

[11] = tested on: waterhemp_RES2 (ALS & HPPD resistant common waterhemp, Amaranthus rudis); experiment: Test E greenhouse herbicide test, postemergence
Procedure, shortened: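 Visual injury scored 0 (no effect) to 100 (complete control) versus untreated plants, 14 to 21 d after treatment in the greenhouse. Plants were treated postemergence at 1- to 4-leaf stage, 2–18 cm height, in peat-moss/vermiculite medium.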

[12] = Postemergence, 31 g ai/ha, 0 to 100 scale (0 no effect, 100 complete control)
[13] = Postemergence, 125 g ai/ha, scale 0 to 100, 0 is no effect, 100 is complete control
[14] = Postemergence, 250 g ai/ha, scale 0 to 100, 0 no effect, 100 complete control, 13 to 15 d
[15] = Preemergence, 31 g ai/ha, scale 0 to 100, 0 is no effect, 100 is complete control
[16] = Preemergence, 62 g ai/ha, scale 0 to 100, 0 is no effect, 100 is complete control
[17] = Preemergence, 125 g ai/ha, scale 0 to 100, 0 is no effect, 100 is complete control
[18] = Preemergence, 250 g ai/ha, scale 0 to 100, 0 no effect, 100 complete control
[19] = postemergence, 62 g ai/ha, scale 0 to 100, 0 no effect, 100 complete control

SMILES: CCc1sc2ccc(C)cc2c1-c1c(O)c(C)nn(C)c1=O [Compound 47]
- Barnyardgrass plant response rating [1, 12]: 15
- Plant response rating, Barnyardgrass [1, 13]: 85
- Plant response rating, Barnyardgrass [1, 14]: 90
- Plant response rating, Barnyardgrass [1, 15]: 5
- Plant response rating, Barnyardgrass [1, 16]: 20
- Plant response rating, Barnyardgrass [1, 17]: 85
- Barnyardgrass plant response rating [1, 18]: 100
- Barnyardgrass plant response rating [1, 19]: 55
- Blackgrass plant response rating [2, 12]: 0
- Plant response rating, Blackgrass [2, 13]: 30
- Plant response rating, Blackgrass [2, 14]: 30
- Plant response rating, Blackgrass [2, 15]: 0
- Plant response rating, Blackgrass [2, 16]: 30
- Plant response rating, Blackgrass [2, 17]: 40
- Blackgrass plant response rating [2, 18]: 90
- Blackgrass plant response rating [2, 19]: 20
- Corn plant response rating (corn (Zea mays); [12]): 0
- Plant response rating, Corn (corn (Zea mays); [13]): 10
- Plant response rating, Corn (corn (Zea mays); [14]): 5
- Plant response rating, Corn (corn (Zea mays); [15]): 0
- Plant response rating, Corn (corn (Zea mays); [16]): 0
- Plant response rating, Corn (corn (Zea mays); [17]): 0
- Corn plant response rating (corn (Zea mays); [18]): 5
- Corn plant response rating (corn (Zea mays); [19]): 5
- Crabgrass, Large plant response rating [3, 12]: 20
- Plant response rating, Crabgrass, Large [3, 13]: 40
- Plant response rating, Crabgrass, Large [3, 14]: 35
- Plant response rating, Crabgrass, Large [3, 15]: 0
- Plant response rating, Crabgrass, Large [3, 16]: 30
- Plant response rating, Crabgrass, Large [3, 17]: 60
- Crabgrass, Large plant response rating [3, 18]: 95
- Crabgrass, Large plant response rating [3, 19]: 30
- Foxtail, Giant plant response rating [4, 12]: 50
- Plant response rating, Foxtail, Giant [4, 13]: 75
- Plant response rating, Foxtail, Giant [4, 14]: 85
- Plant response rating, Foxtail, Giant [4, 15]: 15
- Plant response rating, Foxtail, Giant [4, 16]: 50
- Plant response rating, Foxtail, Giant [4, 17]: 85
- Foxtail, Giant plant response rating [4, 18]: 100
- Foxtail, Giant plant response rating [4, 19]: 65
- Galium plant response rating [5, 12]: 80
- Plant response rating, Galium [5, 13]: 90
- Plant response rating, Galium [5, 14]: 90
- Plant response rating, Galium [5, 15]: 90
- Plant response rating, Galium [5, 16]: 95
- Plant response rating, Galium [5, 17]: 98
- Galium plant response rating [5, 18]: 98
- Galium plant response rating [5, 19]: 90
- Johnsongrass plant response rating [6, 12]: 10
- Plant response rating, Johnsongrass [6, 13]: 20
- Plant response rating, Johnsongrass [6, 14]: 25
- Plant response rating, Johnsongrass [6, 15]: 0
- Plant response rating, Johnsongrass [6, 16]: 0
- Plant response rating, Johnsongrass [6, 17]: 0
- Johnsongrass plant response rating [6, 18]: 0
- Johnsongrass plant response rating [6, 19]: 10
- Nutsedge, Yellow plant response rating [7, 12]: 40
- Plant response rating, Nutsedge, Yellow [7, 13]: 80
- Plant response rating, Nutsedge, Yellow [7, 14]: 90
- Plant response rating, Nutsedge, Yellow [7, 15]: 35
- Plant response rating, Nutsedge, Yellow [7, 16]: 45
- Plant response rating, Nutsedge, Yellow [7, 17]: 75
- Nutsedge, Yellow plant response rating [7, 18]: 85
- Nutsedge, Yellow plant response rating [7, 19]: 70
- Ryegrass, Italian plant response rating [8, 12]: 0
- Plant response rating, Ryegrass, Italian [8, 13]: 25
- Plant response rating, Ryegrass, Italian [8, 14]: 30
- Plant response rating, Ryegrass, Italian [8, 15]: 0
- Plant response rating, Ryegrass, Italian [8, 16]: 20
- Plant response rating, Ryegrass, Italian [8, 17]: 45
- Ryegrass, Italian plant response rating [8, 18]: 50
- Ryegrass, Italian plant response rating [8, 19]: 10
- Soybean plant response rating (soybean (Glycine max); [12]): 0
- Plant response rating, Soybean (soybean (Glycine max); [13]): 10
- Plant response rating, Soybean (soybean (Glycine max); [14]): 15
- Plant response rating, Soybean (soybean (Glycine max); [15]): 0
- Plant response rating, Soybean (soybean (Glycine max); [16]): 0
- Plant response rating, Soybean (soybean (Glycine max); [17]): 10
- Soybean plant response rating (soybean (Glycine max); [18]): 30
- Soybean plant response rating (soybean (Glycine max); [19]): 10
- Velvetleaf plant response rating [9, 12]: 70
- Plant response rating, Velvetleaf [9, 13]: 95
- Plant response rating, Velvetleaf [9, 14]: 95
- Plant response rating, Velvetleaf [9, 15]: 65
- Plant response rating, Velvetleaf [9, 16]: 90
- Plant response rating, Velvetleaf [9, 17]: 100
- Velvetleaf plant response rating [9, 18]: 100
- Velvetleaf plant response rating [9, 19]: 90
- Wheat plant response rating [10, 12]: 0
- Plant response rating, Wheat [10, 13]: 0
- Plant response rating, Wheat [10, 14]: 0
- Plant response rating, Wheat [10, 15]: 0
- Plant response rating, Wheat [10, 16]: 0
- Plant response rating, Wheat [10, 17]: 0
- Wheat plant response rating [10, 18]: 0
- Wheat plant response rating [10, 19]: 0
- Plant response rating, Waterhemp_RES2 ([11]; 31 g ai/ha, visual, scale 0 no effect to 100 complete control): 15
- Plant response rating, Waterhemp_RES2 ([11]; 62 g ai/ha, scale 0 to 100 (0 no effect, 100 complete control)): 50
- Plant response rating, Waterhemp_RES2 ([11]; 125 g ai/ha, scale 0 to 100 (0 no effect, 100 complete control)): 60
- Plant response rating, Waterhemp_RES2 ([11]; 250 g ai/ha, scale 0 to 100 (0 no effect, 100 complete control)): 70
